Here are results for ten molecules from US8318769B2, “Substituted sulfonamide compounds” (Gruenethal GmbH, priority 2008, dated 2012).

One assay concerns the target T1, bradykinin 1 receptor (B1R) of the rat (Rattus norvegicus, UniProt P97583).
T1 construct: expressed in transfected cells
T1 sequence (P97583 1-337): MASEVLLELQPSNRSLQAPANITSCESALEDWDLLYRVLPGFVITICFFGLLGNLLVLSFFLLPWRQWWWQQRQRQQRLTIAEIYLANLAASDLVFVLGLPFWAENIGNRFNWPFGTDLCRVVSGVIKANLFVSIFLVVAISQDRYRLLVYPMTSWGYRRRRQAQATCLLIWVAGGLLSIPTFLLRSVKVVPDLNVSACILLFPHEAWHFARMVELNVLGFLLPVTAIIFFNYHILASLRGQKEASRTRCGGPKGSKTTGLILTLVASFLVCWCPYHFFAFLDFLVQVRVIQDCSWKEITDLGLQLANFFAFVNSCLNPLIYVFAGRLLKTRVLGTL
Put plainly: FLIPR Ca2+ assay, B1R antagonism, rat. As to conditions: 10 μM test substance; CHO K1 cells with rat B1R gene (rB1R cells); Des-Arg9-bradykinin at EC80; % inhibition compared with the maximum achievable inhibition; 10 µM. Format: cell-based. The method, then: The agonistic or antagonistic action of substances can be quantified on the bradykinin 1 receptor (B1R) of the human and rat species with ectopically expressing cell lines (CHO K1 cells) and with the aid of a Ca^2+-sensitive dyestuff (Fluo-4) in a fluorescent imaging plate reader (FLIPR). The figure in % activation is based on the Ca^2+ signal after addition of Lys-Des-Arg^9-bradykinin (0.5 nM) or Des-Arg^9-bradykinin (100 nM). Antagonists lead to a suppression of the Ca^2+ inflow after addition of the agonist. % inhibition compared with the maximum achievable inhibition is stated.
The agonistic or antagonistic action of substances can be determined on the bradykinin 1 receptor (B1R) of the human and rat species with the following assay. In accordance with this assay, the Ca^2+ inflow through the channel is quantified with the aid of a Ca^2+-sensitive dyestuff (type Fluo-4, Molecular Probes Europe BV, Leiden, Holland) in a fluorescent imaging plate reader (FLIPR, Molecular Devices, Sunnyvale, USA).
Chinese hamster ovary cells (CHO K1 cells) transfected stably with the human B1R gene (hB1R cells) or the B1R gene of the rat (rB1R cells) are used. For functional studies, these cells are plated out on black 96-well plates with a clear base (BD Biosciences, Heidelberg, Germany or Greiner, Frickenhausen, Germany) in a density of 20,000-35,000 cells/well. The cells are left overnight at 37° C. and 5% CO2 in culture medium (hB1R cells: Nutrient Mixture Ham's F12, Gibco Invitrogen GmbH, Karlsruhe, Germany or DMEM, Sigma-Aldrich, Taufkirchen, Germany; rB1R cells: D-MEM/F12, Gibco Invitrogen GmbH, Karlsruhe, Germany) with 10 vol. % FBS (foetal bovine serum, Gibco Invitrogen GmbH, Karlsruhe, Germany or PAN Biotech GmbH, Aidenbach, Germany).
On the following day, the cells are loaded for 60 min at 37° C. with 2.13 μM Fluo-4 (Molecular Probes Europe BV, Leiden, Holland) in HBSS buffer (Hank's buffered saline solution, Gibco Invitrogen GmbH, Karlsruhe, Germany) with 2.5 mM probenecid (Sigma-Aldrich, Taufkirchen, Germany) and 10 mM HEPES (Sigma-Aldrich, Taufkirchen, Germany). The plates are then washed 2× with HBSS buffer, and HBSS buffer which additionally contains 0.1% BSA (bovine serum albumin; Sigma-Aldrich, Taufkirchen, Germany), 5.6 mM glucose and 0.05% gelatine (Merck KGaA, Darmstadt, Germany) is added. After a further incubation of 20 minutes at room temperature, the plates are inserted into the FLIPR for the Ca^2+ measurement.
Alternatively, the plates are washed with buffer A (15 mM HEPES, 80 mM NaCl, 5 mM KCl, 1.2 mM CaCl2, 0.7 mM MgSO4, 2 g/l glucose, 2.5 mM probenecid), buffer A is added and the plates are loaded with 2.5 μM Fluo-4 and 0.025% Pluronic F127 (Sigma-Aldrich, Taufkirchen, Germany). Thereafter, the cells are washed 2× with buffer A and incubated for 30 minutes with buffer A, which additionally contains 0.05% BSA and 0.05% gelatine, at room temperature and thereafter inserted into the FLIPR for the Ca^2+ measurement.
The Ca^2+-dependent fluorescence is measured here before and after addition of substances (λex=488 nm, λem=540 nm). Quantification is by measurement of the highest fluorescence intensity (FC, fluorescence counts) over time.
The FLIPR protocol consists of 2 additions of substance. Test substances (10 μM) are first pipetted on to the cells and the Ca^2+ inflow is compared with the control (hB1R: Lys-Des-Arg^9-bradykinin >=50 nM; rB1R: Des-Arg^9-bradykinin 10 μM). This gives the figure in % activation based on the Ca^2+ signal after addition of Lys-Des-Arg^9-bradykinin (>=50 nM) or Des-Arg^9-bradykinin (10 μM).
After incubation for 10-20 minutes, Lys-Des-Arg^9-bradykinin (hB1R) or Des-Arg^9-bradykinin (rB1R) in the concentration of the EC80 is applied and the inflow of Ca^2+ is likewise determined. Antagonists lead to a suppression of the Ca^2+ inflow. % inhibition compared with the maximum achievable inhibition is calculated. […]
Regarding `COc1cc(C)c(S(=O)(=O)N2CCCCC2CCOCC(=O)N2CCC(OCCN3CCCC3)(c3cccc(F)c3)CC2)c(C)c1` (stereo not shown) [Example 126, 1-[4-(3-fluorophenyl)-4-(2-pyrrolidin-1-yl-ethoxy)-piperidin-1-yl]-2-[2-[1-[(4-methoxy-2,6-dimethyl-phenyl)sulfonyl]-piperidin-2-yl]-ethoxy]-ethanone], the “B1R antagonism, rat [10 μM] % inhibition” value is given as 98%.
The same measure, in the same setting: the result for `COc1cc(C)c(S(=O)(=O)N2CCCCC2CCOCC(=O)N2CCC(OCCN3CCCC3)(c3cccnc3)CC2)c(C)c1` (stereo not shown) [Example 124, 2-[2-[1-[(4-methoxy-2,6-dimethyl-phenyl)sulfonyl]-piperidin-2-yl]-ethoxy]-1-[4-pyridin-3-yl-4-(2-pyrrolidin-1-yl-ethoxy)-piperidin-1-yl]-ethanone] reads 98%.

The same assay, now with this note: CHO-K1, 10 μM test substance; CHO K1 cells with rat B1R gene (rB1R cells); Des-Arg9-bradykinin at EC80; % inhibition compared with the maximum achievable inhibition; read-out: B1R antagonism, rat [10 μM] % inhibition.
One may read the inhibition as the relative decrease from the control value, in per cent. Take `Cc1cc(S(=O)(=O)N2CCCCC2CCC(=O)N2CCC(OCCN3CCCC3)(c3ccc(F)cc3)CC2)c(C)cc1Cl` (stereo not shown) [Example 74, 3-[1-[(4-chloro-2,5-dimethyl-phenyl)sulfonyl]-piperidin-2-yl]-1-[4-(4-fluorophenyl)-4-(2-pyrrolidin-1-yl-ethoxy)-piperidin-1-yl]-propan-1-one]: the inhibition at 10 µM was 92%.
On to `O=C(COCC1CCc2ccccc2N1S(=O)(=O)c1ccc2ccccc2c1)N1CCC(OCCN2CCCC2)(c2cccc(F)c2)CC1` (stereo not shown) [Example 131, 1-[4-(3-fluorophenyl)-4-(2-pyrrolidin-1-yl-ethoxy)-piperidin-1-yl]-2-[[1-(naphthalen-2-ylsulfonyl)-1,2,3,4-tetrahydro-quinolin-2-yl]-methoxy]-ethanone], for which the inhibition at 10 µM was found to be 44%.
Same read-out and setting: the same measure for `O=C(CCCC1CCCCN1S(=O)(=O)c1ccc2ccccc2c1)N1CCC(OCCN2CCCC2)(c2cccc(F)c2)CC1` (stereo not shown) [Example 96, 1-[4-(3-fluorophenyl)-4-(2-pyrrolidin-1-yl-ethoxy)-piperidin-1-yl]-4-[1-(naphthalen-2-ylsulfonyl)-piperidin-2-yl]-butan-1-one]: 79%; for `COc1cc(C)c(S(=O)(=O)N2CCCCC2COCC(=O)N2CCC(OCCN3CCCC3)(c3ccc(C(F)(F)F)cc3)CC2)c(C)c1` (stereo not shown) [Example 65, 2-[[1-[(4-methoxy-2,6-dimethyl-phenyl)sulfonyl]-piperidin-2-yl]-methoxy]-1-[4-(2-pyrrolidin-1-yl-ethoxy)-4-[4-(trifluoromethyl)-phenyl]-piperidin-1-yl]-ethanone]: 96%.
Same read-out and setting: the result for `COc1cc(C)c(S(=O)(=O)N2CCCCC2COCC(=O)N2CCC(OCCN3CCCC3)(c3ccc(F)cc3)CC2)c(C)c1` (stereo not shown) [Example 64, 1-[4-(4-fluorophenyl)-4-(2-pyrrolidin-1-yl-ethoxy)-piperidin-1-yl]-2-[[1-[(4-methoxy-2,6-dimethyl-phenyl)sulfonyl]-piperidin-2-yl]-methoxy]-ethanone] reads 98%.
Still for that read-out and setting: the result for `Cc1cc(S(=O)(=O)N2CCCCC2CCC(=O)N2CCC(OCCN3CCCC3)(c3ccc(C(F)(F)F)cc3)CC2)c(C)cc1Cl` (stereo not shown) [Example 75, 3-[1-[(4-chloro-2,5-dimethyl-phenyl)sulfonyl]-piperidin-2-yl]-1-[4-(2-pyrrolidin-1-yl-ethoxy)-4-[4-(trifluoromethyl)-phenyl]-piperidin-1-yl]-propan-1-one] reads 96%.
On to `CS(=O)(=O)N(CCOCC(=O)N1CCC(OCCN2CCCC2)(c2cccc(F)c2)CC1)C(c1ccccc1)c1ccccc1` [Example 105, N-benzhydryl-N-[2-[2-[4-(3-fluorophenyl)-4-(2-pyrrolidin-1-yl-ethoxy)-piperidin-1-yl]-2-oxo-ethoxy]-ethyl]-methanesulfonic acid amide], for which the inhibition at 10 µM amounted to 99%.
Same read-out and setting: the result for `O=C(CC1CCCCN1S(=O)(=O)c1cccc(C(F)(F)F)c1)N1CCC(OCCN2CCCC2)(c2ccc(C(F)(F)F)cc2)CC1` (stereo not shown) [Example 73, 1-[4-(2-pyrrolidin-1-yl-ethoxy)-4-[4-(trifluoromethyl)-phenyl]-piperidin-1-yl]-2-[1-[[3-(trifluoromethyl)phenyl]sulfonyl]-piperidin-2-yl]-ethanone] reads 100%.
